Laboratory results published in paper PMC10385824, “Antiproliferative and Tubulin-Destabilising Effects of 3-(Prop-1-en-2-yl)azetidin-2-Ones and Related Compounds in MCF-7 and MDA-MB-231 Breast Cancer Cells” (Pharmaceuticals, 2023).
Read-outs that look alike come from different tables or passages of the source.

Assays:
[1] = test system: MCF-7 human breast cancer cells; experiment: cells
Protocol: All biochemical assays were performed in triplicate for the determination of mean values reported. The human breast carcinoma cell line MCF-7 was purchased from the European Collection of Animal Cell Cultures (ECACC) and was cultured in Eagle’s minimum essential medium with 10% fetal bovine serum, 2 mM L-glutamine and 100 μg/mL penicillin/streptomycin. The medium was supplemented with 1% non-essential amino acids. […] All cells were sub-cultured 3 times/week by trypsinisation.
Cells were seeded at a density of 5 × 10^3 cells/well (MCF-7) in triplicate in 96-well plates. […] Cell proliferation for MCF-7 and MDA-MB-231 cells was analysed using the Alamar Blue assay (Invitrogen Corp.). […] Experiments were performed in triplicate on at least three separate occasions.

[2] = MCF7, 72 h, read-out: Antiproliferative Activity IC50, MCF-7, 72 h, eight concentrations 1–50 μM, mean ± SEM, Table 2
[3] = MCF7, read-out: Antiproliferative Activity IC50, MCF-7, eight concentrations 0.001–50 μM, mean ± SEM, Table 4
[4] = MCF7, 72 h, read-out: Antiproliferative Activity IC50, MCF-7, 72 h, eight concentrations (0.001–50 mM [sic]), mean ± SEM, Table 5

SMILES	melting point [°C]	IC50 [1, 2] [nM]	IC50 ([1]; MCF7, read-out: Antiproliferative Activity IC50) [nM]	IC50 [1, 3] [nM]	IC50 [1, 4] [nM]
COC(=O)C1=C(C(=O)OC)C(C2C(=O)N(c3cc(OC)c(OC)c(OC)c3)C2c2cccc3ccccc23)CC=C1 (single isomer, unassigned) [22a, Dimethyl-6-(1-(3,4,5-trimethoxyphenyl)-2-(naphthalen-1-yl)-4-oxoazetidin-3-yl)cyclohexa-1,3-diene-1,2-dicarboxylate]	120 to 122				
C=C(C)C1C(=O)N(c2cc(OC)c(OC)c(OC)c2)C1c1ccc([N+](=O)[O-])cc1 (stereo not shown) [9a, 4-(4-Nitrophenyl)-1-(3,4,5-trimethoxyphenyl)-3-(prop-1-en-2-yl)azetidin-2-one]	129 to 130	4960 ± 690			
C=C(C)C1C(=O)N(c2cc(OC)c(OC)c(OC)c2)C1c1ccc(F)cc1 (stereo not shown) [9d, 4-(4-Fluorophenyl)-1-(3,4,5-trimethoxyphenyl)-3-(prop-1-en-2-yl)azetidin-2-one]	99 to 100	691 ± 100			
C=C(C)C1C(=O)N(c2cc(OC)c(OC)c(OC)c2)C1c1ccccc1 (stereo not shown) [9f, 4-Phenyl-1-(3,4,5-trimethoxyphenyl)-3-(prop-1-en-2-yl)azetidin-2-one]	108 to 109	494 ± 140			
C=C(C)C1C(=O)N(c2cc(OC)c(OC)c(OC)c2)C1c1ccc(OCCCC)cc1 (stereo not shown) [9j, 4-(4-Butoxyphenyl)-1-(3,4,5-trimethoxyphenyl)-3-(prop-1-en-2-yl)azetidine-2-one]	55 to 57				
C=C(C)C1C(=O)N(c2cc(OC)c(OC)c(OC)c2)C1c1ccc(Oc2ccccc2)cc1 (stereo not shown) [9k, 4-(4-Phenoxyphenyl)-1-(3,4,5-trimethoxyphenyl)-3-(prop-1-en-2-yl)azetidin-2-one]	126 to 127				
C=C(C)C1C(=O)N(c2ccc(OC)cc2)C1c1ccccc1 (stereo not shown) [9w, 1-(4-Methoxyphenyl)-4-phenyl-3-(prop-1-en-2-yl)azetidin-2-one]	111 to 113	33 ± 5			
C=C(C)C1C(=O)N(c2ccccc2)C1c1ccc(OC)cc1 (stereo not shown) [9x, 4-(4-Methoxyphenyl)-1-phenyl-3-(prop-1-en-2-yl)azetidin-2-one]	104 to 105				
C=CCC1C(=O)N(c2cc(OC)c(OC)c(OC)c2)C1c1ccc(F)cc1 (stereo not shown) [10d, 3-Allyl-4-(4-fluorophenyl)-1-(3,4,5-trimethoxyphenyl) azetidin-2-one]	89 to 90		33800 ± 9040		
C=C/C=C/C1C(=O)N(c2cc(OC)c(OC)c(OC)c2)C1c1ccc([N+](=O)[O-])cc1 (stereo not shown) [11a, (E)-3-(Buta-1,3-dien-1-yl)-4-(4-nitrophenyl)-1-(3,4,5-trimethoxyphenyl)azetidin-2-one]	133 to 134			784 ± 130	
C=C/C=C/C1C(=O)N(c2cc(OC)c(OC)c(OC)c2)C1c1ccc(Cl)cc1 (stereo not shown) [11b, (E)-3-(Buta-1,3-dien-1-yl)-4-(4-chlorophenyl)-1-(3,4,5-trimethoxyphenyl)azetidin-2-one]	145 to 147			315 ± 40	
C=C/C=C/C1C(=O)N(c2cc(OC)c(OC)c(OC)c2)C1c1ccc(Br)cc1 (stereo not shown) [11c, (E)-4-(4-Bromophenyl)-3-(buta-1,3-dien-1-yl)-1-(3,4,5-trimethoxyphenyl)azetidin-2-one]	153 to 155			428 ± 42	
C=C/C=C/C1C(=O)N(c2cc(OC)c(OC)c(OC)c2)C1c1ccc(F)cc1 (stereo not shown) [11d, (E)-3-(Buta-1,3-dien-1-yl)-4-(4-fluorophenyl)-1-(3,4,5-trimethoxyphenyl)azetidin-2-one]	137 to 139			3210 ± 620	
C=C/C=C/C1C(=O)N(c2cc(OC)c(OC)c(OC)c2)C1c1ccccc1 (stereo not shown) [11f, (E)-3-(Buta-1,3-dien-1-yl)-4-phenyl-1-(3,4,5-trimethoxyphenyl)azetidin-2-one]	90 to 93			19400 ± 4030	
C=C/C=C/C1C(=O)N(c2cc(OC)c(OC)c(OC)c2)C1c1ccc(OCC)cc1 (stereo not shown) [11i, (E)-3-(Buta-1,3-dien-1-yl)-4-(4-ethoxyphenyl)-1-(3,4,5-trimethoxyphenyl)-azetidin-2-one]	73 to 75			261 ± 50	
C=C/C=C/C1C(=O)N(c2cc(OC)c(OC)c(OC)c2)C1c1ccc(Oc2ccccc2)cc1 (stereo not shown) [11k, (E)-3-(Buta-1,3-dien-1-yl)-4-(4-phenoxyphenyl)-1-(3,4,5-trimethoxyphenyl)azetidin-2-one]	119 to 120			37900 ± 3800	
C=C/C=C/C1C(=O)N(c2cc(OC)c(OC)c(OC)c2)C1c1cccc2ccccc12 (stereo not shown) [11m, (E)-3-(Buta-1,3-dien-1-yl)-4-(naphthalen-1-yl)-1-(3,4,5-trimethoxyphenyl)azetidin-2-one]	113 to 114			576 ± 100	
C=C/C=C/C1C(=O)N(c2cc(OC)c(OC)c(OC)c2)C1c1ccc(OC)c([N+](=O)[O-])c1 (stereo not shown) [11q, (E)-3-(Buta-1,3-dien-1-yl)-4-(4-methoxy-3-nitrophenyl)-1-(3,4,5-trimethoxyphenyl)azetidin-2-one]	88 to 90			511 ± 90	
COc1ccc(C2C(CC=Cc3ccccc3)C(=O)N2c2cc(OC)c(OC)c(OC)c2)cc1 (stereo not shown) [17a, 3-Cinnamyl-4-(4-methoxyphenyl)-1-(3,4,5-trimethoxyphenyl)azetidin-2-one]	103 to 104				332 ± 40
COc1cc(N2C(=O)C(C3C=CCC4C(=O)N(c5ccccc5)C(=O)C43)C2c2ccc(Cl)cc2)cc(OC)c1OC (stereo not shown) [21a, 4-(2-(4-Chlorophenyl)-1-(3,4,5-trimethoxyphenyl)-4-oxoazetidin-3-yl)-3a,4,7,7a-tetrahydro-2-phenyl-2H-isoindole-1,3-dione]	208 to 210				106000 ± 13900
COc1cc(N2C(=O)C(C3C=CCC4C(=O)OC(=O)C43)C2c2ccc(Br)cc2)cc(OC)c1OC (stereo not shown) [21b, 4-(2-(4-Bromophenyl)-1-(3,4,5-trimethoxyphenyl)-4-oxoazetidin-3-yl)-3a,4,7,7a-tetrahydroisobenzofuran-1,3-dione]	242 to 244				96200 ± 13500
CCCCOc1ccc(C2C(C3C=CCC4C(=O)N(c5ccccc5)C(=O)C43)C(=O)N2c2cc(OC)c(OC)c(OC)c2)cc1 (stereo not shown) [21c, 4-(2-(4-Butoxyphenyl)-4-oxo-1-(3,4,5-trimethoxyphenyl)azetidin-3-yl)-2-phenyl-3a,4,7,7a-tetrahydro-1H-isoindole-1,3(2H)-dione]	163 to 164				38600 ± 4900
COc1ccc(C2C(C3C=CCC4C(=O)OC(=O)C43)C(=O)N2c2cc(OC)c(OC)c(OC)c2)cc1O (stereo not shown) [21d, 3a,4,7,7a-Tetrahydro-4-(2-(3-hydroxy-4-methoxyphenyl)-1-(3,4,5-trimethoxyphenyl)-4-oxoazetidin-3-yl)isobenzofuran-1,3-dione]	224 to 225				91100 ± 14500
COc1cc(N2C(=O)C(CC3CO3)C2c2ccccc2)cc(OC)c1OC (stereo not shown) [compound 20, 1-(3,4,5-Trimethoxyphenyl)-3-((oxiran-2-yl)methyl)-4-phenylazetidin-2-one]					51500 ± 5460
